According to patent EP1561465A2, “Methods of use of fluoroquinolone compounds against bacteria” (LG Life Sciences, Ltd., priority 1999, dated 2001):
Values after ≈ are worked out from the molar mass of the structure shown. Values joined by “and” are separate entries in the source; they are usually repeats but may differ in a detail not shown here. Identical values can stand only once. Like-named read-outs stand apart in the source and are kept apart here.

Assays:
Format in all cases: cell-based
[1] = test system: Staphylococcus aureus; assay: MIC by NCCLS broth microdilution, 1100 Japanese clinical isolates 1997-1998; details: Staphylococcus aureus, Staphylococcus aureus quinolone resistant
[2] = test system: Streptococcus pyogenes; assay: as above; details: Streptococcus pyogenes (n=51)
[3] = test system: Enterococcus faecium; assay: as above; details: for MIC: Enterococcus faecium
[4] = test system: Serratia marcescens; assay: as above
[5] = test system: Gram negative anaerobic pathogens and facultative anaerobic pathogens; assay: MIC by agar dilution, Brucella HK agar with 5% laked sheep blood, anaerobic reference strains
[6] = test system: Enterococcus faecalis; assay: MIC by agar macrodilution (NCCLS), 373 Gram positive isolates, Athens 1998
[7] = test system: Staphylococcus aureus; assay: as above; details: Methicillin-susceptible Staphylococcus aureus (n = 85)

SMILES: CO/N=C1\CN(c2nc3c(cc2F)c(=O)c(C(=O)O)cn3C2CC2)CC1CN (racemic) [Gemifloxacin, (R,S)-7-(3-aminomethyl-4-methoxyiminopyrrolidin-1-yl)-1-cyclopropyl-6-fluoro-4-oxo-1,4-dihydro-1,8-naphthyridine-3-carboxylic acid]
- MIC ([1]; strain TMS2* (spontaneous mutant resistant to ciprofloxacin)): 1 µg/mL (≈ 2.57 µM)
- MIC ([1]; strain TMS3, read-out: MIC): 32 µg/mL (≈ 82.2 µM)
- MIC ([1]; strain TMS4, read-out: MIC): 4 µg/mL (≈ 10.3 µM)
- MIC ([1]; strain TMS5, read-out: MIC): 2 µg/mL (≈ 5.14 µM)
- MIC ([1]; strain TMS6, read-out: MIC): 0.25 µg/mL (≈ 0.642 µM)
- MIC90 [2]: 0.063 µg/mL (≈ 0.162 µM)
- MIC Range [2]: 0.016 to 0.125 µg/mL
- MIC50 ([2]; read-out: MIC50): 0.032 µg/mL (≈ 0.0822 µM)
- MIC50 ([3]; Enterococcus faecium (n=39)): 16 µg/mL (≈ 41.1 µM)
- MIC90 ([3]; Enterococcus faecium (n=39)): 64 µg/mL (≈ 164 µM)
- MIC Range ([3]; Enterococcus faecium (n=39)): 0.063 to 64 µg/mL
- MIC ([3]; Enterococcus faecium (vanA) vancomycin resistant, strain TMS1): 16 µg/mL (≈ 41.1 µM)
- MIC ([3]; Enterococcus faecium (vanA) vancomycin resistant, strain TMS2): 2 µg/mL (≈ 5.14 µM)
- MIC ([3]; Enterococcus faecium (vanA) vancomycin resistant, strain TMS3): 4 µg/mL (≈ 10.3 µM)
- MIC ([3]; Enterococcus faecium (vanA) vancomycin resistant, strain TMS4): 4 µg/mL (≈ 10.3 µM)
- MIC ([3]; Enterococcus faecium (vanA) vancomycin resistant, strain TMS5): 2 µg/mL (≈ 5.14 µM)
- MIC ([3]; Enterococcus laecium (van B) vancomycin resistant, strain TMS6): 32 µg/mL (≈ 82.2 µM)
- MIC ([3]; Enterococcus laecium (van B) vancomycin resistant, strain TMS7): 32 µg/mL (≈ 82.2 µM)
- MIC50 ([4]; Serratia marcescens): 0.125 µg/mL (≈ 0.321 µM)
- MIC90 ([4]; Serratia marcescens (n=30)): 0.5 µg/mL (≈ 1.28 µM)
- MIC Range ([4]; Serratia marcescens (n=30)): 0.063 to 128 µg/mL
- MIC [5]: 1 µg/mL and 0.125 µg/mL
- MIC ([5]; Bacteroides eggerthii, ATCC27754, Bacteroides eggerthii ATCC27754, read-out: MIC): 4 µg/mL (≈ 10.3 µM)
- MIC ([5]; Bacteroides fragilis, ATCC25285, Bacteroides fragilis ATCC25285, read-out: MIC): 0.5 µg/mL (≈ 1.28 µM)
- MIC ([5]; Bacteroides fragilis, Bacteroides fragilis GA15562, read-out: MIC): 0.25 µg/mL (≈ 0.642 µM)
- MIC ([5]; Bacteroides fragilis, Bacteroides fragilis GA-I0558, read-out: MIC): 0.5 µg/mL (≈ 1.28 µM)
- MIC ([5]; Bacteroides fragilis, Bacteroides fragilis GA-I7955, read-out: MIC): 2 µg/mL (≈ 5.14 µM)
- MIC ([5]; Bacteroides fragilis, Bacteroides fragilis GAI10150, read-out: MIC): 0.5 µg/mL (≈ 1.28 µM)
- MIC ([5]; Bacteroides fragilis, Bacteroides fragilis GAI30079, read-out: MIC): 8 µg/mL (≈ 20.5 µM)
- MIC ([5]; Bacteroides fragilis, Bacteroides fragilis GAI30144, read-out: MIC): 2 µg/mL (≈ 5.14 µM)
- MIC ([5]; Bacteroides fragilis, NCTC10581, Bacteroides fragilis NCTC10581, read-out: MIC): 0.5 µg/mL (≈ 1.28 µM)
- MIC ([5]; Bacteroides ovatus, ATCC8483, Bacteroides ovatus ATCC8483, read-out: MIC): 1 µg/mL (≈ 2.57 µM)
- MIC ([5]; Bacteroides thetaiotaomicron, ATCC29741, Bacteroides thetaiotaomicron ATCC29741, read-out: MIC): 2 µg/mL (≈ 5.14 µM)
- MIC ([5]; Bacteroides uniformis, ATCC8492, Bacteroides uniformis ATCC8492, read-out: MIC): 1 µg/mL (≈ 2.57 µM)
- MIC ([5]; Campylobacter gracilis, JCM8538, Campylobacter gracilis JCM8538, read-out: MIC): ≤ 0.03 µg/mL
- MIC ([5]; Campylobacter ureolyticus, NCTC10941, Bacteroides ureolyticus NCTC10941, read-out: MIC): ≤ 0.03 µg/mL
- MIC ([5]; Capnocytophaga ochracea, Capnocytophaga ochracea GAI5586, read-out: MIC): ≤ 0.03 µg/mL
- MIC ([5]; Desullomonas pigra DSM749, read-out: MIC): 0.06 µg/mL (≈ 0.154 µM)
- MIC ([5]; Fusobacterium necrophorum, ATCC25286, Fusobacterium necrophorum ATCC25286, read-out: MIC): 0.25 µg/mL (≈ 0.642 µM)
- MIC ([5]; Fusobacterium nucleatum, ATCC25586): 0.125 µg/mL (≈ 0.321 µM)
- MIC ([5]; Fusobacterium varium, ATCC8501, Fusobacterium varium ATCC8501, read-out: MIC): 0.5 µg/mL (≈ 1.28 µM)
- MIC ([5]; Hoylesella oralis, ATCC33269, Prevotella oralis ATCC33269, read-out: MIC): 2 µg/mL (≈ 5.14 µM)
- MIC ([5]; Parabacteroides distasonis, ATCC8503, Bacteroides distasonis ATCC8503, read-out: MIC): 0.25 µg/mL (≈ 0.642 µM)
- MIC ([5]; Phocaeicola vulgatus, ATCC8482, Bacteroides vulgatus ATCC8482, read-out: MIC): 0.25 µg/mL (≈ 0.642 µM)
- MIC ([5]; Porphylomonas gingivalis ATCC33277, read-out: MIC): 0.06 µg/mL (≈ 0.154 µM)
- MIC ([5]; Porphyromonas asaccharolytica, ATCC25260, Porphyromonas asaccharolytica ATCC25260, read-out: MIC): 0.06 µg/mL (≈ 0.154 µM)
- MIC ([5]; Prevotella bivia, ATCC29303, Prevotella bivia ATCC29303, read-out: MIC): 16 µg/mL (≈ 41.1 µM)
- MIC ([5]; Prevotella buccaeATCC33574, read-out: MIC): 2 µg/mL (≈ 5.14 µM)
- MIC ([5]; Prevotella corporis, Prevotella corporis GAI91000, read-out: MIC): 1 µg/mL (≈ 2.57 µM)
- MIC ([5]; Prevotella heparinolytica, ATCC35895): 0.125 µg/mL (≈ 0.321 µM)
- MIC ([5]; Prevotella melaninogenica, Prevotella melaninogenica GAI5490, read-out: MIC): 1 µg/mL (≈ 2.57 µM)
- MIC ([5]; Segatella oris, ATCC33573, Prevotella oris ATCC33573, read-out: MIC): 0.5 µg/mL (≈ 1.28 µM)
- MIC ([5]; Sutterella wadsworthensis, ATCC51579, Sutterella wadsworthensis ATCC51579, read-out: MIC): 2 µg/mL (≈ 5.14 µM)
- MIC ([5]; Veillonella dispar, ATCC17748, Veillonella dispar ATCC17748, read-out: MIC): ≤ 0.03 µg/mL
- MIC ([5]; Veillonella parvula, ATCC10790, Veillonella parvula ATCC10790, read-out: MIC): 0.06 µg/mL (≈ 0.154 µM)
- MIC distribution (µg/ml) 0.03 [6]: 2
- MIC distribution (µg/ml) 0.06 [6]: 2
- MIC distribution (µg/ml) 0.125 [6]: 24
- MIC distribution (µg/ml) 0.25 [6]: 22
- MIC distribution (µg/ml) 1 [6]: 2
- MIC distribution (µg/ml) 2 [6]: 1
- MIC distribution (µg/ml) 4 [6]: 5
- MIC distribution (µg/ml) 8 [6]: 9
- MIC distribution (µg/ml) 16 [6]: 5
- MIC distribution (µg/ml) ≤0.015 [6]: 0
- MIC distribution (µg/ml) ≥32 [6]: 4
- MIC50 ([6]; Enterococcus faecalis, n = 81 isolates, read-out: MIC50): 0.25 µg/mL (≈ 0.642 µM)
- MIC90 ([6]; Enterococcus faecalis, n = 81 isolates, read-out: MIC90): 16 µg/mL (≈ 41.1 µM)
- MIC distribution (µg/ml) 0.5 ([6]; number of isolates at MIC 0.5 µg/ml, n = 81): 5
- MIC Range [7]: ≤0.03 to 4 µg/mL
- MIC50 ([7]; read-out: MIC50): 0.06 µg/mL (≈ 0.154 µM)
- MIC90 ([7]; read-out: MIC90): 0.125 µg/mL (≈ 0.321 µM)
